In US9617226B2 (AbbVie Deutschland GmbH & Co. KG, priority 2014, dated 2017):

What was measured:
[1] = biological target: human vasopressin V1a receptor (Homo sapiens (Human), UniProt P37288); test: Vasopressin V1a receptor binding assay; settings: selectivity quotient, human V1a vs human V1b
Protocol: The test substances were dissolved in a concentration of 5 mM M in DMSO. Further dilution of these DMSO solutions took place as described for V1b.
The membrane pellet was again homogenized in a High-Pressure-Homogenizer, Polytec 50K at 1500 PSI (Heinemann, Germany) and subsequently taken up in 50 mM Tris-HCl, pH 7.4, homogenized and stored in aliquots frozen in liquid nitrogen at −190° C.
The incubation buffer was: 50 mM Tris, 10 mM MgCl2, 0.1% BSA, pH 7.4.
Duplicate determinations were carried out.
After incubation (60 minutes at room temperature), the samples were processed as described for V1b.
The binding parameters were calculated by nonlinear regression in SAS.

[2] = biological target: human vasopressin V1b receptor (Homo sapiens (Human), UniProt P47901); test: biochemical
human vasopressin V1b receptor, sequence (P47901 whole entry): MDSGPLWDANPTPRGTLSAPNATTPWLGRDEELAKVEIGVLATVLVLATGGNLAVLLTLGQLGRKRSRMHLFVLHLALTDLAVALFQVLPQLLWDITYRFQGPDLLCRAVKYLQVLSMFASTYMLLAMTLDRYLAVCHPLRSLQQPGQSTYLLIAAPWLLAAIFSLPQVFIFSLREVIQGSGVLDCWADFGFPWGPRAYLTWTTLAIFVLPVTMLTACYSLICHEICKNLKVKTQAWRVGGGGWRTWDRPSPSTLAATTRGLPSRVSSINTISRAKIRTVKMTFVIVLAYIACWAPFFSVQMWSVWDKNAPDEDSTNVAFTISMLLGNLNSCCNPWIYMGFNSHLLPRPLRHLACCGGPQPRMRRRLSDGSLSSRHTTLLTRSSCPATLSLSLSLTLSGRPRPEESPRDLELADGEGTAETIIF

human vasopressin V1a receptor, sequence (P37288 whole entry): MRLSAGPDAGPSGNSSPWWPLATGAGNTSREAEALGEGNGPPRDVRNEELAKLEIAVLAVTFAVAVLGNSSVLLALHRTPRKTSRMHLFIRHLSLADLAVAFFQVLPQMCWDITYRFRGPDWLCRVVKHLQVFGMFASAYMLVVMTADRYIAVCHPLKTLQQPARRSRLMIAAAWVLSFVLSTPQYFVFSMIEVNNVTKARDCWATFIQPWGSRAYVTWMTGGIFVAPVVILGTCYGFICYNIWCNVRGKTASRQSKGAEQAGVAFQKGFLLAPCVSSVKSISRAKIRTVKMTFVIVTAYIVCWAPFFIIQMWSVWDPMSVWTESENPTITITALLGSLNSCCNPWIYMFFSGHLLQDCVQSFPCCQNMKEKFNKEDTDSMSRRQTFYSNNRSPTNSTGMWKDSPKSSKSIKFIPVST

Row | Structure (SMILES) | Ki(h-V1a)/Ki(h-V1b) [1] | Ki [2] [nM]
1 | CC1CCN(C[C@H]2C[C@@H](c3ccc4nc(-c5cccc(Cl)c5)n(CC(=O)NC(C)C)c(=O)c4c3)C2)CC1 [Example 22, cis-2-[2-(3-Chlorophenyl)-6-[3-[(4-methyl-1-piperidyl)methyl]cyclobutyl]-4-oxo-quinazolin-3-yl]-N-isopropyl-acetamide] | +++ (>75) | 1 to 10
2 | CC(C)NC(=O)Cn1c(-c2cccc(Cl)c2)nc2ccc([C@H]3C[C@@H](CN4CC5(COC5)C4)C3)cc2c1=O [Example 31, cis-2-[2-(3-Chlorophenyl)-6-[3-(6-oxa-2-azaspiro[3.3]heptan-2-ylmethyl)cyclobutyl]-4-oxo-quinazolin-3-yl]-N-isopropyl-acetamide] | +++ (>75) | 1 to 10
3 | CC(C)NC(=O)Cn1c(-c2cccc(Cl)c2)nc2ccc([C@H]3C[C@@H](CN4CC=CCC4)C3)cc2c1=O [Example 18, cis-2-[2-(3-Chlorophenyl)-6-[3-(3,6-dihydro-2H-pyridin-1-ylmethyl)cyclobutyl]-4-oxo-quinazolin-3-yl]-N-isopropyl-acetamide] | +++ (>75) | 1 to 10
4 | CC(C)NC(=O)Cn1c(-c2cccc(Cl)c2)nc2ccc([C@H]3C[C@@H](CN4CC[C@@H](F)C4)C3)cc2c1=O [Example 11, cis-2-[2-(3-Chlorophenyl)-6-[3-[[(3R)-3-fluoropyrrolidin-1-yl]methyl]cyclobutyl]-4-oxo-quinazolin-3-yl]-N-isopropyl-acetamide] | +++ (>75) | 1 to 10
5 | CCOC1CCN(C[C@H]2C[C@@H](c3ccc4nc(-c5cccc(Cl)c5)n(CC(=O)NC(C)C)c(=O)c4c3)C2)CC1 [Example 20, cis-2-[2-(3-Chlorophenyl)-6-[3-[(4-ethoxy-1-piperidyl)methyl]cyclobutyl]-4-oxo-quinazolin-3-yl]-N-isopropyl-acetamide] | +++ (>75) | 10 to 100
6 | CC(C)NC(=O)Cn1c(-c2cccc(Cl)c2)nc2ccc([C@H]3C[C@@H](CN4CCC(O)CC4)C3)cc2c1=O [Example 32, cis-2-[2-(3-Chlorophenyl)-6-[3-[(4-hydroxy-1-piperidyl)methyl]cyclobutyl]-4-oxo-quinazolin-3-yl]-N-isopropyl-acetamide] | +++ (>75) | 10 to 100
7 | CC(C)NC(=O)Cn1c(-c2cccc(Cl)c2)nc2ccc([C@H]3C[C@@H](CN4CCCC(C#N)C4)C3)cc2c1=O (relative stereo) [Example 14, cis-2-[2-(3-Chlorophenyl)-6-[3-[(3-cyano-1-piperidyl)methyl]cyclobutyl]-4-oxo-quinazolin-3-yl]-N-isopropyl-acetamide] | +++ (>75) | 1 to 10
8 | CC(C)NC(=O)Cn1c(-c2cccc(Cl)c2)nc2ccc([C@H]3C[C@@H](CN(C)C)C3)cc2c1=O [Example 17, cis-2-[2-(3-Chlorophenyl)-6-[3-(dimethylaminomethyl)cyclobutyl]-4-oxo-quinazolin-3-yl]-N-isopropyl-acetamide] | +++ (>75) | 10 to 100
9 | CC(C)NC(=O)Cn1c(-c2cccc(Cl)c2)nc2ccc([C@H]3C[C@@H](CN4CC[C@H](C)C4)C3)cc2c1=O [Example 24, cis-2-[2-(3-Chlorophenyl)-6-[3-[[(3S)-3-methylpyrrolidin-1-yl]methyl]cyclobutyl]-4-oxo-quinazolin-3-yl]-N-isopropyl-acetamide] | +++ (>75) | 10 to 100
10 | O=C(Cn1c(-c2cccc(Cl)c2)nc2ccc([C@H]3C[C@@H](CN4CCCCC4)C3)cc2c1=O)NCC1CC1 [Example 29, cis-2-[2-(3-Chlorophenyl)-4-oxo-6-[3-(1-piperidylmethyl)cyclobutyl]quinazolin-3-yl]-N-(cyclopropylmethyl)acetamide] | +++ (>75) | 10 to 100

More lines, now with the values ahead:

Row | Ki(h-V1a)/Ki(h-V1b) [1] | Ki [2] [nM] | Structure (SMILES)
11 | +++ (>75) | 1 to 10 | CC(C)NC(=O)Cn1c(-c2cccc(Cl)c2)nc2ccc([C@H]3C[C@@H](CN4CCOC[C@H]4C)C3)cc2c1=O [Example 44, cis-2-[2-(3-Chlorophenyl)-6-[3-[[(3R)-3-methylmorpholin-4-yl]methyl]cyclobutyl]-4-oxo-quinazolin-3-yl]-N-isopropyl-acetamide]
12 | +++ (>75) | 1 to 10 | C[C@H](NC(=O)Cn1c(-c2cccc(Cl)c2)nc2ccc([C@H]3C[C@@H](CN4CCCCC4)C3)cc2c1=O)C(F)(F)F [Example 45]
13 | +++ (>75) | 1 to 10 | CC(C)NC(=O)Cn1c(-c2cccc(Cl)c2)nc2ccc([C@H]3C[C@@H](CN4CCC[C@H](O)C4)C3)cc2c1=O [Example 37, cis-2-[2-(3-Chlorophenyl)-6-[3-[ [(3S)-3-hydroxy-1-piperidyl]methyl]cyclobutyl]-4-oxo-quinazolin-3-yl]-N-isopropyl-acetamide]
14 | +++ (>75) | 10 to 100 | COC1CN(C[C@H]2C[C@@H](c3ccc4nc(-c5cccc(Cl)c5)n(CC(=O)NC(C)C)c(=O)c4c3)C2)C1 [Example 35, cis-2-[2-(3-Chlorophenyl)-6-[3-[(3-methoxyazetidin-1-yl)methyl]cyclobutyl]-4-oxo-quinazolin-3-yl]-N-isopropyl-acetamide]
